These results are taken from patent US20260273072A1, “NOVEL PLK1 DEGRADATION INDUCING COMPOUND” (UPPTHERA, INC., priority 2023, published 2026).

A word on the IC50: it is the concentration that inhibits the measured activity by half.

SMILES strings stand for the structures. Read-outs that look alike come from different tables or passages of the source.

Holding throughout (assay type): cell-based
One data set has as its system MRC-5 cell line. The experiment in a line: Cell viability assay for MRC-5 cell line (EZ-Cytox). To be noted: for IC50: Homo sapiens, MRC5, 120 h. On the procedure:
4. Cell Viability Assay for MRC-5 Cell Line
(1) Culture of MRC-5 Cell Line
The MRC-5 cell line was purchased from KCLB. Passage of cultured cells was maintained within P15.
(2) Treatment of Compounds of the Present Invention
Then, it was cultured in 37° C. CO2 incubator (Thermo Fisher Scientific) for 5 days.
(3) Cytotoxicity Experiment
CO2 incubator for 4 hours.

Another data set has as its system NCI-H526 cell line. The experiment in a line: Cell viability assay for NCI-H526 cell line (EZ-Cytox). The note with it: Homo sapiens, NCI-H526, 120 h; H526 cells, 5 days, 3000 nM to 0.46 nM. On the procedure:
(§1) 3. Cell Viability Assay for NCI-H69, NCI-H526 Cell Lines
(§2) (1) Culture of NCI-H69, NCI-H526 Cell Lines
(§3) The NCI-H69 (hereafter H69) and NCI-H526 (hereafter H526) cell lines were purchased from KCLB.
(§4) (2) Treatment of Compounds of the Present Invention and Method of Cell Viability Assay
(§5) After treating the compound to each well to make the total volume of 200 μl, it was cultured in a CO2 incubator (Thermo Fisher Scientific) for 5 days. […] The absorbance of the completely cultured sample was measured by setting the wavelength of a plate reader (BMG Labtech) to […], and was measured after shaking for 3 minutes in a plate reader before measurement.
(§6) The results of cell viability for H526 and H69 cell line are shown in Table 3 and Table 4, respectively.
(§7) In Table 3 and Table 4, Activity represents IC50 value of each Exemplary Compound treatment group to H526 and H69 cell line, respectively (A: <30 nM, B: <50 nM, C: <100 nM, D: <200 nM, E: <400 nM).

Another data set has as its target T1, PLK1 (Homo sapiens, UniProt P53350).
T1 construct: endogenous in cells; host or cells: HeLa LgBit (Plk1-HiBit KI): HeLa stably expressing LgBit, with a CRISPR/Cas9 knock-in of HiBit at the endogenous PLK1 locus
The data set is described as follows: Luciferase assay for PLK1 in HeLa LgBit (Plk1-HiBit KI) cell line. To be noted: 300 nM compound, luminescence after 9 hours. On the procedure: 2. Luciferase Assay for PLK1
(1) Preparation and Culture of HeLa LgBit (Plk1-HiBit KI) Cell Line
A HeLa cell line in which the LgBit vector was transfected and expressed stably was prepared. Then, after constructing gRNA and donor to express the HiBit amino acid sequence behind the C-terminal of the PLK1 gene, which was inherent in the cell, it was inserted into the cell together with a vector capable of expressing CRISPR/Cas9. Only the cells in which the insertion was completed and knock-in had progressed were selected, sub-cultured and used.
For cell culture, DMEM (Gibco), FBS (Gibco), PS (Gibco), […] cell culture dish (SPL), […] cell culture dish (SPL), 96-well culture plate (SPL), PBS pH 7.4 (Gibco), TrypLE™ Express (Gibco), Cell counter (Thermo Fisher Scientific) and 0.4% Trypan Blue Solution (DYNEBIO) were used.
(2) Treatment of Compounds of the Present Invention and Method of Luciferase Assay
In the case of HeLa LgBit (Plk1-HiBit KI), the compounds were treated after being released after thymidine block, and the process was as follows. Thymidine (Sigma-Aldrich) was completely dissolved in ddH2O and used in the experiment. For thymidine block, the products were treated with 2 mM of thymidine and then incubated for 24 hours. For release and chemical treatment, the medium was suctioned and washed with 1×PBS. TrypLE™ (Gibco) was added and incubated in 37° C. CO2 incubator (Thermo Fisher Scientific) for 5 mins. Cells neutralized by adding complete media were counted through a counter. For each well of a 96-well culture plate (SPL), 3.3×10^4 cells and a total medium volume of 150 μl were seeded and incubated in a CO2 incubator.
Each cell line was incubated in a CO2 incubator for 18 hours, and Endurazine (Promega, Cat. No. N257B) was added to each well to make up 4% of the total volume. After adding compounds of Examples in a 96-well white plate (SPL) to a concentration of 300 nM, the wavelength of the plate reader (BMG Labtech, CLARIOstar Plus) was set to 470-480 nm, and then the luminescence was tracked in real time.
In Table 2, Activity represents the ratio of the luminescence value of each Exemplary Compound treatment group to DMSO treatment group (+++: <0.3, ++: <0.5, +: <0.7).
In general terms: The HiBiT peptide binds its large partner to form an active luciferase.

Another data set deals with NCI-H69 cell line. The data set is described as follows: Cell viability assay for NCI-H69 cell line (EZ-Cytox). The note with it: Homo sapiens, NCI-H69, 120 h; H69 cells, 5 days, 3000 nM to 0.46 nM. Here is the method:
as §1, §2, §3, §4, §5, §6, §7

Setting [1] is: read-out: Activity: IC50 value, cell viability, MRC-5 cell line (Comparative Compounds).
The mark [2] stands for this setting: MRC-5 normal cell line, 5 days, 10000 nM to 1.52 nM, read-out: Activity: IC50 value, cell viability, MRC-5 cell line (Exemplary Compounds).

T1 sequence (P53350 whole entry): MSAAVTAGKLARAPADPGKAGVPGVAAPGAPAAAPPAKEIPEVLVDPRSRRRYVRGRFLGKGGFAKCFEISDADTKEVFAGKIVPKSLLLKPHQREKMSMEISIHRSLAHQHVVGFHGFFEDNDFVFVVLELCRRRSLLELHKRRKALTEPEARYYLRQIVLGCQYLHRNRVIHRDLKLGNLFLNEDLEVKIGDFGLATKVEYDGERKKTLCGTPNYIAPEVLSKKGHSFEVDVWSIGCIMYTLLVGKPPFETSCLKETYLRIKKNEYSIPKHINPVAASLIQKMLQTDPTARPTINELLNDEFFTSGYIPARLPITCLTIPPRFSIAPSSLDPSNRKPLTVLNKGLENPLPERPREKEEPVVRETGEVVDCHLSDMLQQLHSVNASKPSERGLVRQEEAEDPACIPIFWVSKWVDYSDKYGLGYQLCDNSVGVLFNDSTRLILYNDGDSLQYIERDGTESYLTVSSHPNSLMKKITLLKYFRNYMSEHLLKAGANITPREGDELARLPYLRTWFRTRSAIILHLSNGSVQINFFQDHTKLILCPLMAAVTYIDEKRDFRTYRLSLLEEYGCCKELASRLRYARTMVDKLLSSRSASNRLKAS

Consider `CC[C@@H]1C(=O)N(C)c2cnc(Nc3ccc(C(=O)NCCOCCOCCNc4cccc5c4C(=O)N(C4CCC(=O)NC4=O)C5=O)cc3OC)nc2N1C1CCCC1` (stereo partly shown) [Comparative Compound 1, reference compound], for which the “Cytotoxicity in normal cell line versus cancer cell lines (in words)” value in the data set on MRC-5 cell line (MRC-5 normal cell line compared with cancer cell lines) was “exhibited a high level of cytotoxicity in normal cell line”.

Take `CC[C@@H]1C(=O)N(C)c2cnc(Nc3ccc(C(=O)NC4CCN(C)CC4)cc3OC)nc2N1C1CCCC1` [Comparative Compound 2, BI2536, reference compound]: the half-maximal inhibitory concentration (IC50) with MRC-5 cell line (setting [1]) is 3090 nM.

`CC[C@@H]1C(=O)N(C)c2cnc(Nc3ccc(C(=O)N[C@H]4CC[C@H](N5CCN(CC6CC6)CC5)CC4)cc3OC)nc2N1C(C)C` [Comparative Compound 3, Volasertib, reference compound]: the IC50 in the data set on MRC-5 cell line (setting [1]) amounted to 2940 nM.

Take `COc1cc(C(=O)NC2CCN(C)CC2)c(F)cc1Nc1ncc2c(n1)N(C1CCCC1)CC(F)(F)C(=O)N2C` [Comparative Compound 4, TAK960, reference compound]: the 50% inhibitory concentration (IC50) with MRC-5 cell line (setting [1]) is 9150 nM.

As to `COc1cc(C(=O)NN2CCC(N3CC4(CCN(c5cccc(C6CCC(=O)NC6=O)c5)CC4)C3)CC2)ccc1Nc1ncc2c(n1)N(C1CCCC1)CC(F)(F)C(=O)N2C` (stereo not shown) [Compound 1, 4-((9-cyclopentyl-7,7-difluoro-5-methyl-6-oxo-6,7,8,9-tetrahydro-5H-pyrimido[4,5-b][1,4]diazepin-2-yl)amino)-N-(4-(7-(3-(2,6-dioxopiperidin-3-yl)phenyl)-2,7-diazaspiro[3.5]nonan-2-yl)piperidin-1-yl)-3-methoxybenzamide], the IC50 with NCI-H526 cell line is below 30 nM; in the data set with MRC-5 cell line (setting [2]), above 10000 nM; in the data set on NCI-H69 cell line it was below 50 nM. Further, the “Activity: ratio of the luminescence value of compound treatment group to DMSO treatment group” value (“Activity: ratio” below) at PLK1 is reported as “++ (++: <0.5)”.

On to `COc1cc(C(=O)NN2CCC(C3CCN(c4ccc(C5CCC(=O)NC5=O)cc4F)C3)CC2)ccc1Nc1ncc2c(n1)N(C(C)C)CC(F)(F)C(=O)N2C` (stereo not shown) [Compound 2, 4-((7,7-difluoro-9-isopropyl-5-methyl-6-oxo-6,7,8,9-tetrahydro-5H-pyrimido[4,5-b][1,4]diazepin-2-yl)amino)-N-(4-(1-(4-(2,6-dioxopiperidin-3-yl)-2-fluorophenyl)pyrrolidin-3-yl)piperidin-1-yl)-3-methoxybenzamide], for which the values for the IC50 in the data set on NCI-H526 cell line, in the data set with MRC-5 cell line (setting [2]) and with NCI-H69 cell line were below 50 nM, above 10000 nM and below 100 nM, respectively. In addition, the “Activity: ratio” value on PLK1 is “++ (++: <0.5)”.

As to `COc1cc(C(=O)NC2CCN(C3CN(c4ccc(C5CCC(=O)NC5=O)cc4F)C3)CC2)ccc1Nc1ncc2c(n1)N(C(C)C)CC(F)(F)C(=O)N2C` (stereo not shown) [Compound 3, 4-((7,7-difluoro-9-isopropyl-5-methyl-6-oxo-6,7,8,9-tetrahydro-5H-pyrimido[4,5-b][1,4]diazepin-2-yl)amino)-N-(1-(1-(4-(2,6-dioxopiperidin-3-yl)-2-fluorophenyl)azetidin-3-yl)piperidin-4-yl)-3-methoxybenzamide], the IC50 in the data set with NCI-H526 cell line was below 50 nM; in the data set with MRC-5 cell line (setting [2]), above 10000 nM; with NCI-H69 cell line, below 100 nM. For the same compound, at PLK1, the “Activity: ratio” value is “++ (++: <0.5)”.

As for `CCN1CC(F)(F)C(=O)N(C)c2cnc(Nc3ccc(C(=O)NC4CC5(CCN(CC6CCN(c7ccc(C8CCC(=O)NC8=O)cc7F)CC6)CC5)C4)cc3OC)nc21` (stereo not shown) [Compound 4, N(7-((1-(4-(2,6-dioxopiperidin-3-yl)-2-fluorophenyl)piperidin-4-yl)methyl)-7-azaspiro[3.5]nonan-2-yl)-4-((9-ethyl-7,7-difluoro-5-methyl-6-oxo-6,7,8,9-tetrahydro-5H-pyrimido[4,5-b][1,4]diazepin-2-yl)amino)-3-methoxybenzamide], the IC50 with NCI-H526 cell line was below 30 nM; in the data set on MRC-5 cell line (setting [2]) it was above 10000 nM; with NCI-H69 cell line it was below 30 nM.

Consider `COc1cc(C(=O)NC2CC3(CCN(CCC4CCN(c5ccc(NC6CCC(=O)NC6=O)cc5F)CC4)CC3)C2)ccc1Nc1ncc2c(n1)N(C(C)C)CC(F)(F)C(=O)N2C` (stereo not shown) [Compound 31, 4-((7,7-difluoro-9-isopropyl-5-methyl-6-oxo-6,7,8,9-tetrahydro-5H-pyrimido[4,5-b][1,4]diazepin-2-yl)amino)-N-(7-(2-(1-(4-((2,6-dioxopiperidin-3-yl)amino)-2-fluorophenyl)piperidin-4-yl)ethyl)-7-azaspiro[3.5]nonan-2-yl)-3-methoxybenzamide], for which the IC50 in the data set on NCI-H526 cell line and in the data set with NCI-H69 cell line was below 30 nM each time. In addition, the “Activity: ratio” value on PLK1 is “+++ (+++: <0.3)”.

Regarding `COc1cc(C(=O)NC2CC3(CCN(CCC4CCN(c5cc(F)c(NC6CCC(=O)NC6=O)cc5F)CC4)CC3)C2)ccc1Nc1ncc2c(n1)N(C(C)C)CC(F)(F)C(=O)N2C` (stereo not shown) [Compound 61, 4-((7,7-difluoro-9-isopropyl-5-methyl-6-oxo-6,7,8,9-tetrahydro-5H-pyrimido[4,5-b][1,4]diazepin-2-yl)amino)-N-(7-(2-(1-(4-((2,6-dioxopiperidin-3-yl)amino)-2,5-difluorophenyl)piperidin-4-yl)ethyl)-7-azaspiro[3.5]nonan-2-yl)-3-methoxybenzamide], the IC50 with NCI-H526 cell line and in the data set on NCI-H69 cell line was below 30 nM throughout. For the same compound, at PLK1, the “Activity: ratio” value is recorded as “++ (++: <0.5)”.

With `COc1cc(C(=O)NC2CCN(CCC3CCN(c4cc(F)c(NC5CCC(=O)NC5=O)cc4F)CC3)CC2)ccc1Nc1ncc2c(n1)N(C(C)C)CC(F)(F)C(=O)N2C` (stereo not shown) [Compound 62, 4-((7,7-difluoro-9-isopropyl-5-methyl-6-oxo-6,7,8,9-tetrahydro-5H-pyrimido[4,5-b][1,4]diazepin-2-yl)amino)-N-(1-(2-(1-(4-((2,6-dioxopiperidin-3-yl)amino)-2,5-difluorophenyl)piperidin-4-yl)ethyl)piperidin-4-yl)-3-methoxybenzamide], the IC50 with NCI-H526 cell line and with NCI-H69 cell line was below 30 nM in each case. For the same compound, the “Activity: ratio” value on PLK1 is reported as “++ (++: <0.5)”.

For the compound `COc1cc(C(=O)NC2CC3(CCN(CC4CCN(c5cc(F)c(NC6CCC(=O)NC6=O)cc5F)CC4)CC3)C2)ccc1Nc1ncc2c(n1)N(C1CCCC1)CC(F)(F)C(=O)N2C` (stereo not shown) [Compound 70, 4-((9-cyclopentyl-7,7-difluoro-5-methyl-6-oxo-6,7,8,9-tetrahydro-5H-pyrimido[4,5-b][1,4]diazepin-2-yl)amino)-N-(7-((1-(4-((2,6-dioxopiperidin-3-yl)amino)-2,5-difluorophenyl)piperidin-4-yl)methyl)-7-azaspiro[3.5]nonan-2-yl)-3-methoxybenzamide], the IC50 in the data set with NCI-H526 cell line and in the data set with NCI-H69 cell line was below 30 nM each time. Besides, the “Activity: ratio” value at PLK1 is recorded as “+++ (+++: <0.3)”.
